{"source": "patent US11445726B2", "about": "“Pyridinium salt and pest control agent” (Nippon Soda Co., Ltd., priority 2017, dated 2022)", "assay_type_in_all_cases": "in vivo", "key": {"[1]": {"tested_on": "Mythimna separata", "assay": "Efficacy test against Mythimna separata (maize leaf dipping)", "details": "125 ppm, maize leaf pieces immersed, second instar larvae, 6 days after release", "experimental": "(§1) 5 parts by weight of the compound of the present invention, 93.6 parts by weight of dimethylformamide, and 1.4 parts by weight of polyoxyethylene alkylaryl ether were mixed and dissolved to prepare an emulsion (1) containing 5% of an active ingredient.\nThe emulsion (1) was diluted with water so that the concentration of the compound of the present invention was 125 ppm. Maize leaf pieces were immersed in the diluent for 30 seconds. The maize leaf pieces were placed in a petri dish, and five second instar larvae of M. separata were released.\nThe petri dish was left to stand in a thermostatic chamber at a temperature of 25° C. and a humidity of 60% during the test period. Mortality was evaluated when 6 days passed since the release of the insects, and the insecticidal rate was calculated. The test was repeated twice."}, "[2]": {"tested_on": "Spodoptera litura", "assay": "Efficacy test against Spodoptera litura (cabbage leaf dipping)", "details": "125 ppm, cabbage leaves immersed, second instar larvae, 6 days after release", "experimental": "as §1\n(§2) The emulsion (1) was diluted with water so that the concentration of the compound of the present invention was 125 ppm. Cabbage leaves were immersed in the diluent for 30 seconds. The cabbage leaves were placed in a petri dish, and five second instar larvae of S. litura were released. The petri dish was left to stand in a thermostatic chamber at a temperature of 25° C. and a humidity of 60% during the test period. Mortality was evaluated when 6 days passed since the release of the insects, and the insecticidal rate was calculated. The test was repeated twice."}, "[3]": {"tested_on": "diamide-based insecticide-resistant Plutella xylostella", "assay": "Efficacy test against diamide-based insecticide-resistant Plutella xylostella", "details": "125 ppm, cabbage leaves immersed, second instar larvae, 3 days", "experimental": "as §1\n(§3) The emulsion (I) was diluted with water so that the concentration of the compound of the present invention was 125 ppm. Cabbage leaves were immersed in the diluent for 30 seconds. The cabbage leaves were air dried and placed in a petri dish, and five second instar larvae of diamide-based insecticide-resistant P. xylostella were released.\n(§4) The petri dish was left to stand in a thermostatic chamber at a temperature of 25° C. and a humidity of 60% during the test period. Mortality was evaluated when 3 days passed since the release of the insects, and the insecticidal rate was calculated. The test was repeated twice."}, "[4]": {"tested_on": "Plutella xylostella", "assay": "Efficacy test against Plutella xylostella (cabbage leaf dipping)", "details": "125 ppm, cabbage leaves immersed, second instar larvae, 3 days after release", "experimental": "as §1\nas §2, with “The emulsion (I) was diluted” for “The emulsion (1) was diluted”, “leaves were air dried and placed in” for “leaves were placed in”, “larvae of P. xylostella were released.” for “larvae of S. litura were released.”, “evaluated when 3 days passed” for “evaluated when 6 days passed”"}, "[5]": {"tested_on": "Tetranychus urticae", "assay": "Efficacy test against Tetranychus urticae (spray on kidney bean plants)", "details": "125 ppm spray on kidney bean plants, adult females removed after 3 days, surviving individuals 10 days after spraying", "description": "as §1\n98.6 parts by weight of dimethylformamide, and 1.4 parts by weight of polyoxyethylene alkylaryl ether were mixed and dissolved to prepare an emulsion (11) containing no active ingredient.\nKidney bean plants were raised in No. 3 pots, and 8 adult females of T. urticae from Aomori Prefecture were inoculated on primary leaves. The emulsion (I) was diluted with water so that the concentration of the compound of the present invention was 125 ppm. The diluent was sprayed on the kidney bean plants (treated group).\nOn the same day, the emulsion (11) was diluted 400 times with water. The diluent was sprayed on the kidney bean plants (untreated group).\nThe above No. 3 pots were left to stand in a thermostatic chamber at a temperature of 25° C. and a humidity of 65% during the test period. The inoculated adult females of T. urticae were removed with an aspirator 3 days after spraying. Eggs were laid on the leaves. The number of surviving individuals was examined 10 days after spraying, and the control rate was calculated according to the following formula. The test was repeated twice. Control rate (%)=100×[1−Nt/Nc] […]"}, "[6]": {"tested_on": "Thrips palmi", "assay": "Efficacy test against Thrips palmi (spray on kidney bean leaf piece)", "details": "125 ppm spray, first instar larvae, 2 days", "experimental": "as §1\n1% agar was poured into a plastic petri dish (90 mm diameter), and a primary leaf piece of a kidney bean plant was placed thereon. 15 first instar larvae of T. palmi were inoculated thereon. The emulsion (I) was diluted with water so that the concentration of the compound of the present invention was 125 ppm. The diluent was sprayed on the leaf piece of the kidney bean plant. The petri dish was left to stand in a thermostatic chamber at a temperature of 25° C. and a humidity of 60% during the test period. Mortality of T. palmi was examined 2 days after that, and the insecticidal rate was calculated. The test was repeated twice."}, "[7]": {"tested_on": "benzoylurea-based insecticide-resistant Helicoverpa armigera", "assay": "Efficacy test against benzoylurea-based insecticide-resistant Helicoverpa armigera", "details": "125 ppm, cabbage leaves immersed, second instar larvae, 3 days", "experimental": "as §1\nas §3, with “8” for “five”, “benzoylurea-based” for “diamide-based”, “H. armigera” for “P. xylostella”, “inoculated.” for “released.”\nas §4"}}, "data": [{"smiles": "O=C(N[n+]1ccccc1)c1ccc(Cl)cc1", "note": "[comparative compound A]", "values": [{"measurement": "insecticidal rate against M. separata", "setting": "[1]", "value": 0, "unit": "%"}, {"measurement": "insecticidal rate against S. litura", "setting": "[2]", "value": 0, "unit": "%"}, {"measurement": "insecticidal rate against diamide-based insecticide-resistant P. xylostella", "setting": "[3]", "value": 0, "unit": "%"}, {"measurement": "insecticidal rate against P. xylostella", "setting": "[4]", "value": 0, "unit": "%"}, {"measurement": "control rate against T. urticae", "setting": "[5]", "value": 100, "unit": "%"}, {"measurement": "insecticidal rate against T. palmi", "setting": "[6]", "value": 0, "unit": "%"}, {"measurement": "insecticidal rate against benzoylurea-based insecticide-resistant H. armigera", "setting": "[7]", "value": 0, "unit": "%"}]}]}
